Test results as given in patent US7915291B2, “Hepatitis C virus inhibitors” (Bristol-Myers Squibb Company, priority 2002, dated 2011).
Read-outs that look alike come from different tables or passages of the source.

Columns and labels:
[1] = molecular target: HCV NS3/4A protease complex, BMS strain (UniProt P27958, C1454S/C1711G, species not given/STRAIN_BMS); assay: Recombinant HCV NS3/4A protease complex FRET peptide assay (BMS strain); assay type: biochemical, HCV genotype 1a
Source text: Recombinant HCV NS3/4A Protease Complex FRET Peptide Assay
The purpose of this in vitro assay was to measure the inhibition of HCV NS3 protease complexes, derived from the BMS, H77C or J416S strains, as described below, by compounds of the present invention.
Serum from an HCV-infected patient was obtained from Dr. T. Wright, San Francisco Hospital. An engineered full-length cDNA (compliment deoxyribonucleic acid) template of the HCV genome (BMS strain) was constructed from DNA fragments obtained by reverse transcription-PCR(RT-PCR) of serum RNA (ribonucleic acid) and using primers selected on the basis of homology between other genotype 1a strains.
The BMS, H77C and J4L6S strains were used for production of recombinant NS3/4A protease complexes. […] Briefly, a three-lysine solubilizing tail was added at the 3′-end of the NS4A coding region. […] Briefly, NS3/4A expression was induced with 0.5 mM Isopropyl β-D-1-thiogalactopyranoside (IPTG) for 22 hr at 20° C. […] The crude protein extract was loaded on a Nickel—Nitrilotriacetic acid (Ni-NTA) column pre-equilibrated with buffer B (25 mM HEPES, pH8.0, 20% glycerol, 500 mM NaCl, 0.5% Triton-X100, 15 mM imidazole, 5 mM βME). The sample was loaded at a flow rate of 1 mL/min. The column was washed with 15 column volumes of buffer C (same as buffer B except with 0.2% Triton-X100). The protein was eluted with 5 column volumes of buffer D (same as buffer C except with 200 mM Imidazole).
NS3/4A protease complex-containing fractions were pooled and loaded on a desalting column Superdex-S200 pre-equilibrated with buffer D (25 mM HEPES, pH7.5, 20% glycerol, 300 mM NaCl, 0.2% Triton-X100, 10 mM βME). Sample was loaded at a flow rate of 1 mL/min. NS3/4A protease complex-containing fractions were pooled and concentrated to approximately 0.5 mg/ml.
The enzyme was stored at −80° C., thawed on ice and diluted prior to use in assay buffer. […] The sequence of this peptide is loosely based on the NS4A/NS4B natural cleavage site except there is an ester linkage rather than an amide bond at the cleavage site. The peptide substrate was incubated with one of the three recombinant NS3/4A complexes, in the absence or presence of a compound of the present invention, and the formation of fluorescent reaction product was followed in real time using a Cytofluor Series 4000.
The reagents were as follow: HEPES and Glycerol (Ultrapure) were obtained from GIBCO-BRL. Dimethyl Sulfoxide (DMSO) was obtained from Sigma. β-Mercaptoethanol was obtained from Bio Rad.
Substrate: 2 μM final concentration (from a 2 mM stock solution in DMSO stored at −20° C.). HCV NS3/4A type 1a (1b), 2-3 nM final concentration (from a 5 μM stock solution in 25 mM HEPES, pH7.5, 20% glycerol, 300 mM NaCl, 0.2% Triton-X100, 10 mM βME).
The assay was performed in a 96-well polystyrene black plate from Falcon. Each well contained 25 μl NS3/4A protease complex in assay buffer, 50 μof a compound of the present invention in 10% DMSO/assay buffer and 25 μl substrate in assay buffer. A control (no compound) was also prepared on the same assay plate. The enzyme complex was mixed with compound or control solution for 1 min before initiating the enzymatic reaction by the addition of substrate. The assay plate was read immediately using the Cytofluor Series 4000 (Perspective Biosystems). The instrument was set to read an […] at 25° C. Reactions were generally followed for approximately 15 minutes.
The percent inhibition was calculated with the following equation: 100−[(δFinh/δFcon)×100] where δF is the change in fluorescence over the linear range of the curve.

[2] = system: HCV replicon in Huh7 cells; assay: HCV replicon cell-based assay; design: species or system HCV strain 1B; conditions: Hepatitis C virus, Huh-7; HCV replicon, Huh7 cells; read-out: EC50 range
Source text: HCV Replicon Cell-based Assay
This system enabled us to evaluate the effects of our HCV Protease compounds on HCV RNA replication. Briefly, using the HCV strain 1B sequence described in the Lohmann paper (Assession number:AJ238799), an HCV cDNA was generated encoding the 5′ internal ribosome entry site (IRES), the neomycin resistance gene, the EMCV (encephalomyocarditis virus)-IRES and the HCV nonstructural proteins, NS3-NS5B, and 3′ non-translated region (NTR). In vitro transcripts of the cDNA were transfected into the human hepatoma cell line, Huh7. […] Resulting cell lines were characterized for positive and negative strand RNA production and protein production over time.
Huh7 cells, constitutively expressing the HCV replicon, were grown in Dulbecco's Modified Eagle Media (DMEM) containing 10% Fetal calf serum (FCS) and 1 mg/ml G418 (Gibco-BRL). Cells were seeded the night before (1.5×10^4 cells/well) in 96-well tissue-culture sterile plates. Compound and no compound controls were prepared in DMEM containing 4% FCS, 1:100 Penicillin/Streptomysin, 1:100 L-glutamine and 5% DMSO in the dilution plate (0.5% DMSO final concentration in the assay). Compound/DMSO mixes were added to the cells and incubated for 4 days at 37° C. After 4 days, plates were rinsed thoroughly with Phosphate-Buffered Saline (PBS) (3 times 150 μl). The cells were lysed with 25 μl of a lysis assay reagent containing the FRET peptide (RET S1, as described for the in vitro enzyme assay). The lysis assay reagent was made from 5× cell Luciferase cell culture lysis reagent(Promega #E153A) diluted to 1× with distilled water, NaCl added to 150 mM final, the FRET peptide diluted to 10 μM final from a 2 mM stock in 100% DMSO. The plate was then placed into the Cytofluor 4000 instrument which had been set to 340 nm excitation/490 emission, automatic mode for 21 cycles and the plate read in a kinetic mode. EC50 determinations were carried out as described for the IC50 determinations.
Cells were lyzed using the Rneasy kit (Qiagen). […] All primers were designed with ABI Prism 7700 software and obtained from Biosearch Technologies, Novato, Calif. Samples containing known concentrations of HCV RNA transcript were run as standards. Using the following cycling protocol (50° C., 30 min; 95° C., 5 min; 40 cycles of 95° C., 15 sec, 60° C., 1 min), HCV RNA expression was quantitated as described in the Perkin Elmer manual using the ABI Prism 7700 Sequence Detector.

[3] = NS3/4A BMS strain; read-out: IC50 range

SMILES | IC50 [1, 3] [µM] | also measured
C=C[C@@H]1C[C@]1(NC(=O)C1C[C@@H](Oc2nc(C3CC3)nc3cc(OC)c(OC)cc23)CN1C(=O)[C@@H](N)C(C)(C)C)C(=O)NS(=O)(=O)C1CC1 (stereo partly shown) [Compound 49] | 1 to 10 | –
C=C[C@@H]1C[C@]1(NC(=O)C1C[C@@H](Oc2nc(C(F)(F)F)nc3cc(OC)c(OC)cc23)CN1C(=O)[C@@H](N)C(C)(C)C)C(=O)NS(=O)(=O)C1CC1 (stereo partly shown) [Compound 52] | 1 to 10 | –
C=C[C@@H]1CC1(NC(=O)[C@@H]1CC(Oc2nccc3cc(OC)ccc23)CN1C(=O)[C@@H](NC(=O)NC(C)(C)C)C(C)(C)C)C(=O)NS(=O)(=O)C1CC1 (stereo partly shown) [Compound 74] | – | EC50 [2]: < 0.1 µM
C=CC1CC1(NC(=O)C1CC(Oc2nccc3cc(OC)ccc23)CN1C(=O)C(NC)C(C)CC)C(=O)NS(=O)(=O)C1CC1 (stereo not shown) [Compound 99] | – | IC50 ([1]; read-out: IC50 range; NS3/4A BMS strain): 1 to 10 µM
C=C[C@@H]1C[C@]1(NC(=O)[C@@H]1C[C@@H](Oc2nccc3cc(OC)ccc23)CN1C(=O)[C@@H](NC(=O)N[C@H](C(=O)OC)C(C)(C)C)C(C)(C)C)C(=O)NS(=O)(=O)C1CC1 [Compound 146] | – | EC50 [2]: < 0.1 µM
C=CC1C[C@]1(NC(=O)[C@@H]1C[C@@H](Oc2nc(-c3cnccn3)c(OC)c3ccccc23)CN1C(=O)[C@@H](NC(=O)OC(C)(C)C)C(C)(C)C)C(=O)NS(=O)(=O)C1CC1 (stereo partly drawn) [Compound 231, BOCNH-P3(L-t-BuGly)-P2[(4R)-(3-pyrazine-2-yl-4-methoxy -isoquinolin-1-oxo)-S-proline]-P1(1R,2S VinylAcca)-CONHSO2Cyclopropane] | 1 to 10 | –
C=CC1C[C@]1(NC(=O)[C@@H]1C[C@@H](Oc2nc(Cl)c(OC)c3ccccc23)CN1C(=O)[C@@H](NC(=O)OC(C)(C)C)C(C)(C)C)C(=O)NS(=O)(=O)C1CC1 (stereo partly drawn) [Compound 245, BOCNH-P3(L-t-BuGly)-P2[(4R)-(3-chloro-4-methoxyisoquinoline-1-oxo)-S-proline]-P1(1R,2S VinylAcca)-CONHSO2Cyclopropane] | 0.1 to 1 | –
C=C[C@@H]1C[C@]1(NC(=O)[C@@H]1C[C@@H](Oc2nccc3c(O)cccc23)CN1C(=O)[C@@H](NC(=O)OC(C)(C)C)C(C)(C)C)C(=O)NS(=O)(=O)C1CC1 [Compound 256] | 10 to 100 | –
C=CC1C[C@]1(NC(=O)[C@@H]1C[C@@H](Oc2nc(-c3cnc(N(C)C)s3)cc3cc(OC)ccc23)CN1C(=O)[C@@H](NC(=O)OC(C)(C)C)C(C)(C)C)C(=O)NS(=O)(=O)C1CC1 (stereo partly shown) [Compound 331] | < 0.1 | –
C=CC1CC1(NC(=O)[C@@H]1C[C@@H](Oc2ccnc(N3CCc4ccccc4C3)n2)CN1C(=O)[C@@H](NC(=O)OC)C(C)(C)C)C(=O)NS(=O)(=O)C1CC1 (stereo partly shown) [Compound 341] | 1 to 10 | –
C=CC1CC1(NC(=O)[C@@H]1C[C@@H](Oc2ccnc(N3Cc4ccccc4C3)n2)CN1C(=O)[C@@H](NC(=O)OC)C(C)(C)C)C(=O)NS(=O)(=O)C1CC1 (stereo partly shown) [Compound 342] | 1 to 10 | –
C=CC1CC1(NC(=O)[C@@H]1C[C@@H](Oc2ccnc(N3CCOCC3)n2)CN1C(=O)[C@@H](NC(=O)OC)C(C)(C)C)C(=O)NS(=O)(=O)C1CC1 (stereo partly shown) [Compound 343] | 1 to 10 | –
C=CC1C[C@]1(NC(=O)[C@@H]1C[C@@H](COc2ccnc3ccccc23)CN1C(=O)[C@@H](NC(=O)OC)C(C)(C)C)C(=O)NS(=O)(=O)C1CC1 (stereo partly shown) [Compound 344] | 0.1 to 1 | –
C=CC1C[C@]1(NC(=O)[C@@H]1C[C@@H](COc2cncc(Br)c2)CN1C(=O)[C@@H](NC(=O)OC)C(C)(C)C)C(=O)NS(=O)(=O)C1CC1 (stereo partly shown) [Compound 346] | 1 to 10 | –
C=CC1C[C@]1(NC(=O)[C@@H]1C[C@@H](COc2ccnc(Br)c2)CN1C(=O)[C@@H](NC(=O)OC)C(C)(C)C)C(=O)NS(=O)(=O)C1CC1 (stereo partly shown) [Compound 348] | 10 to 100 | –
C=CC1C[C@]1(NC(=O)[C@@H]1C[C@@H](COc2ccnc(-c3ccsc3)c2)CN1C(=O)[C@@H](NC(=O)OC)C(C)(C)C)C(=O)NS(=O)(=O)C1CC1 (stereo partly shown) [Compound 349] | 1 to 10 | –
C=CC1C[C@]1(NC(=O)[C@@H]1C[C@@H](COc2ccnc(-c3ccoc3)c2)CN1C(=O)[C@@H](NC(=O)OC)C(C)(C)C)C(=O)NS(=O)(=O)C1CC1 (stereo partly shown) [Compound 351] | 1 to 10 | –
C=CC1C[C@]1(NC(=O)[C@@H]1C[C@@H](COc2cccc(Br)n2)CN1C(=O)[C@@H](NC(=O)OC)C(C)(C)C)C(=O)NS(=O)(=O)C1CC1 (stereo partly shown) [Compound 352] | 10 to 100 | –
C=CC1C[C@]1(NC(=O)[C@@H]1C[C@@H](COc2cccc(-c3ccsc3)n2)CN1C(=O)[C@@H](NC(=O)OC)C(C)(C)C)C(=O)NS(=O)(=O)C1CC1 (stereo partly shown) [Compound 353] | 10 to 100 | –
C=CC1C[C@]1(NC(=O)[C@@H]1C[C@@H](COc2cccc(-c3ccccc3)n2)CN1C(=O)[C@@H](NC(=O)OC)C(C)(C)C)C(=O)NS(=O)(=O)C1CC1 (stereo partly shown) [Compound 354] | 1 to 10 | –
C=CC1CC1(NC(=O)[C@@H]1C[C@@H](Oc2cncc(Br)c2)CN1C(=O)[C@@H](NC(=O)OC(C)(C)C)C(C)(C)C)C(=O)NS(=O)(=O)C1CC1 (stereo partly shown) [Compound 423] | 0.1 to 1 | –
C=CC1CC1(NC(=O)[C@@H]1C[C@@H](Sc2cccc3ccccc23)CN1C(=O)[C@@H](NC(=O)OC(C)(C)C)C(C)(C)C)C(=O)NS(C)(=O)=O (stereo partly shown) [Compound 451] | 1 to 10 | –
C=CC1CC1(NC(=O)[C@@H]1C[C@@H](Sc2ccc3ccccc3c2)CN1C(=O)[C@@H](NC(=O)OC(C)(C)C)C(C)(C)C)C(=O)NS(C)(=O)=O (stereo partly shown) [Compound 452] | 1 to 10 | –
C=C[C@@H]1C[C@]1(NC(=O)[C@@H]1C[C@@H](Oc2cccc3ccccc23)CN1C(=O)[C@@H](NC(=O)OC(C)(C)C)C(C)(C)C)C(=O)NS(C)(=O)=O [Compound 470] | 0.1 to 1 | –
C=C[C@H]1C[C@@]1(NC(=O)[C@@H]1C[C@@H](Oc2cccc3ccccc23)CN1C(=O)[C@@H](NC(=O)OC(C)(C)C)C(C)(C)C)C(=O)NS(C)(=O)=O [Compound 471] | 1 to 10 | –
